Results from ChEMBL document CHEMBL3885881, “DrugMatrix”.

Species: Rattus norvegicus
Assay: DrugMatrix - Regimen: Daily Repeat
Assay type: toxicity, organism-based, Sprague-Dawley
Design: regimen Daily Repeat, gender Male, age 6-8 weeks
Details: in vivo, po, route oral GAVAGE, vehicle 100 % WATER; for ABSOLUTE BASOPHIL / ABSOLUTE EOSINOPHIL / ABSOLUTE LYMPHOCYTE / ABSOLUTE MONOCYTE / ABSOLUTE SEGMENTED NEUTROPHIL / BASOPHIL / EOSINOPHIL / ERYTHROCYTE COUNT / HEMATOCRIT / HEMOGLOBIN / LEUKOCYTE COUNT / LYMPHOCYTE / MEAN CORPUSCULAR HEMOGLOBIN / MEAN CORPUSCULAR HEMOGLOBIN CONCENTRATION / MEAN CORPUSCULAR VOLUME / MONOCYTE / NEUTROPHIL / NUCLEATED RED BLOOD CELLS / PLATELET COUNT: tissue Blood; for ALANINE AMINOTRANSFERASE / ALBUMIN / ALKALINE PHOSPHATASE / ASPARTATE AMINOTRANSFERASE / BLOOD UREA NITROGEN / CARBON DIOXIDE / CHLORIDE / CHOLESTEROL / CREATINE PHOSPHOKINASE / CREATININE / GLUCOSE / LACTATE DEHYDROGENASE / LIPASE / PHOSPHORUS / POTASSIUM / SODIUM / TOTAL BILIRUBIN / TOTAL PROTEIN / URIC ACID: tissue Plasma
[1] = 0 mg/kg, 72 h, dose level Control, time 3 day
[2] = 0 mg/kg, 120 h, dose level Control, time 5 day
[3] = 45 mg/kg, 72 h, dose level Low, time 3 day
[4] = 45 mg/kg, 120 h, dose level Low, time 5 day

## CCOC(N)=O
[1]
  ABSOLUTE BASOPHIL: 0 CELLS/uL
  ABSOLUTE EOSINOPHIL: 123.17 CELLS/uL
  ABSOLUTE LYMPHOCYTE: 12677.83 CELLS/uL
  ABSOLUTE MONOCYTE: 66.17 CELLS/uL
  ABSOLUTE SEGMENTED NEUTROPHIL: 1149.5 CELLS/uL
  BASOPHIL: 0%
  EOSINOPHIL: 0.83%
  ERYTHROCYTE COUNT: 5.26 x10E6/uL
  HEMATOCRIT: 33.07%
  HEMOGLOBIN: 13.43 G/DL
  LEUKOCYTE COUNT: 14.02 x10E3/uL
  LYMPHOCYTE: 90.17%
  MEAN CORPUSCULAR HEMOGLOBIN: 25.62 pg
  MEAN CORPUSCULAR HEMOGLOBIN CONCENTRATION: 40.65 G/DL
  MEAN CORPUSCULAR VOLUME: 63 fL
  MONOCYTE: 0.5%
  NEUTROPHIL: 8.5%
  NUCLEATED RED BLOOD CELLS: 0.17 /100WBC
  PLATELET COUNT: 1142.83 x10E3/uL
  ALANINE AMINOTRANSFERASE: 45.17 u/L
  ALBUMIN: 3.78 G/DL
  ALKALINE PHOSPHATASE: 340.17 u/L
  ASPARTATE AMINOTRANSFERASE: 77.33 u/L
  BLOOD UREA NITROGEN: 14.67 mg/dL
  CARBON DIOXIDE: 28.67 mmol/L
  CHLORIDE: 101.17 MEQ/L
  CHOLESTEROL: 77.67 mg/dL
  CREATINE PHOSPHOKINASE: 263.67 u/L
  CREATININE: 0.15 mg/dL
  GLUCOSE: 169.33 mg/dL
  LACTATE DEHYDROGENASE: 230 u/L
  LIPASE: 9.67 u/L
  PHOSPHORUS: 11.8 mg/dL
  POTASSIUM: 5.91 MEQ/L
  SODIUM: 142.88 MEQ/L
  TOTAL BILIRUBIN: 0.22 mg/dL
  TOTAL PROTEIN: 5.7 G/DL
  URIC ACID: 1.35 mg/dL
[2]
  ABSOLUTE BASOPHIL: 0 CELLS/uL
  ABSOLUTE EOSINOPHIL: 125 CELLS/uL
  ABSOLUTE LYMPHOCYTE: 13809 CELLS/uL
  ABSOLUTE MONOCYTE: 351 CELLS/uL
  ABSOLUTE SEGMENTED NEUTROPHIL: 1581.67 CELLS/uL
  BASOPHIL: 0%
  EOSINOPHIL: 0.67%
  ERYTHROCYTE COUNT: 5.53 x10E6/uL
  HEMATOCRIT: 34.83%
  HEMOGLOBIN: 13.9 G/DL
  LEUKOCYTE COUNT: 15.87 x10E3/uL
  LYMPHOCYTE: 87.5%
  MEAN CORPUSCULAR HEMOGLOBIN: 25.25 pg
  MEAN CORPUSCULAR HEMOGLOBIN CONCENTRATION: 40.08 G/DL
  MEAN CORPUSCULAR VOLUME: 63.05 fL
  MONOCYTE: 2.17%
  NEUTROPHIL: 9.67%
  NUCLEATED RED BLOOD CELLS: 0 /100WBC
  PLATELET COUNT: 1044 x10E3/uL
  ALANINE AMINOTRANSFERASE: 50.67 u/L
  ALBUMIN: 4.33 G/DL
  ALKALINE PHOSPHATASE: 395 u/L
  ASPARTATE AMINOTRANSFERASE: 86 u/L
  BLOOD UREA NITROGEN: 15.33 mg/dL
  CARBON DIOXIDE: 29.33 mmol/L
  CHLORIDE: 101.5 MEQ/L
  CHOLESTEROL: 71.33 mg/dL
  CREATINE PHOSPHOKINASE: 323.17 u/L
  CREATININE: 0.18 mg/dL
  GLUCOSE: 145.67 mg/dL
  LACTATE DEHYDROGENASE: 389.5 u/L
  LIPASE: 9.83 u/L
  PHOSPHORUS: 11.35 mg/dL
  POTASSIUM: 6.39 MEQ/L
  SODIUM: 142.77 MEQ/L
  TOTAL BILIRUBIN: 0.18 mg/dL
  TOTAL PROTEIN: 6.1 G/DL
  URIC ACID: 1.52 mg/dL
[3]
  ABSOLUTE BASOPHIL: 0 CELLS/uL
  ABSOLUTE EOSINOPHIL: 0 CELLS/uL
  ABSOLUTE LYMPHOCYTE: 12480 CELLS/uL
  ABSOLUTE MONOCYTE: 82.67 CELLS/uL
  ABSOLUTE SEGMENTED NEUTROPHIL: 1104 CELLS/uL
  BASOPHIL: 0%
  EOSINOPHIL: 0%
  ERYTHROCYTE COUNT: 5.25 x10E6/uL
  HEMATOCRIT: 34.27%
  HEMOGLOBIN: 13.87 G/DL
  LEUKOCYTE COUNT: 13.67 x10E3/uL
  LYMPHOCYTE: 91.33%
  MEAN CORPUSCULAR HEMOGLOBIN: 26.43 pg
  MEAN CORPUSCULAR HEMOGLOBIN CONCENTRATION: 40.47 G/DL
  MEAN CORPUSCULAR VOLUME: 65.23 fL
  MONOCYTE: 0.67%
  NEUTROPHIL: 8%
  NUCLEATED RED BLOOD CELLS: 0.33 /100WBC
  PLATELET COUNT: 1224 x10E3/uL
  ALANINE AMINOTRANSFERASE: 48.67 u/L
  ALBUMIN: 3.73 G/DL
  ALKALINE PHOSPHATASE: 327 u/L
  ASPARTATE AMINOTRANSFERASE: 72 u/L
  BLOOD UREA NITROGEN: 14 mg/dL
  CARBON DIOXIDE: 31.33 mmol/L
  CHLORIDE: 100.67 MEQ/L
  CHOLESTEROL: 75.67 mg/dL
  CREATINE PHOSPHOKINASE: 181.67 u/L
  CREATININE: 0.14 mg/dL
  GLUCOSE: 154 mg/dL
  LACTATE DEHYDROGENASE: 151.67 u/L
  LIPASE: 10 u/L
  PHOSPHORUS: 12.13 mg/dL
  POTASSIUM: 7.17 MEQ/L
  SODIUM: 142.87 MEQ/L
  TOTAL BILIRUBIN: 0.17 mg/dL
  TOTAL PROTEIN: 5.53 G/DL
  URIC ACID: 1.63 mg/dL
[4]
  ABSOLUTE BASOPHIL: 0 CELLS/uL
  ABSOLUTE EOSINOPHIL: 0 CELLS/uL
  ABSOLUTE LYMPHOCYTE: 10640.67 CELLS/uL
  ABSOLUTE MONOCYTE: 292.67 CELLS/uL
  ABSOLUTE SEGMENTED NEUTROPHIL: 1133.33 CELLS/uL
  BASOPHIL: 0%
  EOSINOPHIL: 0%
  ERYTHROCYTE COUNT: 5.57 x10E6/uL
  HEMATOCRIT: 35.5%
  HEMOGLOBIN: 14.37 G/DL
  LEUKOCYTE COUNT: 12.07 x10E3/uL
  LYMPHOCYTE: 88.67%
  MEAN CORPUSCULAR HEMOGLOBIN: 25.77 pg
  MEAN CORPUSCULAR HEMOGLOBIN CONCENTRATION: 40.47 G/DL
  MEAN CORPUSCULAR VOLUME: 63.8 fL
  MONOCYTE: 2.33%
  NEUTROPHIL: 9%
  NUCLEATED RED BLOOD CELLS: 0 /100WBC
  PLATELET COUNT: 1349.67 x10E3/uL
  ALANINE AMINOTRANSFERASE: 45 u/L
  ALBUMIN: 4.53 G/DL
  ALKALINE PHOSPHATASE: 393.33 u/L
  ASPARTATE AMINOTRANSFERASE: 72 u/L
  BLOOD UREA NITROGEN: 14.67 mg/dL
  CARBON DIOXIDE: 33 mmol/L
  CHLORIDE: 101 MEQ/L
  CHOLESTEROL: 75 mg/dL
  CREATINE PHOSPHOKINASE: 138.67 u/L
  CREATININE: 0.19 mg/dL
  GLUCOSE: 156.33 mg/dL
  LACTATE DEHYDROGENASE: 85.67 u/L
  LIPASE: 10 u/L
  PHOSPHORUS: 11.27 mg/dL
  POTASSIUM: 6.72 MEQ/L
  SODIUM: 144.8 MEQ/L
  TOTAL BILIRUBIN: 0.23 mg/dL
  TOTAL PROTEIN: 6.3 G/DL
  URIC ACID: 1.6 mg/dL
